# pIC50: −log10 of the molar value.
# Tested on: 377384-186-R-J1-PDC complex spheroid viability
# Assay: Anticancer human tumor 377384-186-R-J1-PDC patient-derived pancreatic carcinoma cell line growth inhibition [RAS]
# Settings: for viability, T/C: stronger effect = lower value
# Method in brief: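 Multi-cell-type spheroids: tumor cells plus HUVEC endothelial cells and mesenchymal stem cells. RAS-pathway inhibitors were combined with targeted agents, each dosed in half-log steps down from clinical Cmax, or from 10 microM when Cmax was unknown.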
# [1] = curve of first compound, second compound 0.00316 µM
# [2] = curve of first compound, second compound 0.01 µM
# [3] = curve of first compound, second compound 0.0316 µM
# [4] = curve of first compound, second compound 0.1 µM
# [5] = curve of first compound, second compound 0.316 µM
# [6] = curve of first compound, second compound 1 µM
# [7] = second compound 0.00316 µM, first compound 0.0316 µM
# [8] = second compound 0.00316 µM, first compound 0.1 µM
# [9] = second compound 0.00316 µM, first compound 0.316 µM
# [10] = second compound 0.00316 µM, first compound 1 µM
# [11] = second compound 0.01 µM, first compound 0.0316 µM
# [12] = second compound 0.01 µM, first compound 0.1 µM
# [13] = second compound 0.01 µM, first compound 0.316 µM
# [14] = second compound 0.01 µM, first compound 1 µM
# [15] = second compound 0.0316 µM, first compound 0.0316 µM
# [16] = second compound 0.0316 µM, first compound 0.1 µM
# [17] = second compound 0.0316 µM, first compound 0.316 µM
# [18] = second compound 0.0316 µM, first compound 1 µM
# [19] = second compound 0.1 µM, first compound 0.0316 µM
# [20] = second compound 0.1 µM, first compound 0.1 µM
# [21] = second compound 0.1 µM, first compound 0.316 µM
# [22] = second compound 0.1 µM, first compound 1 µM
# [23] = second compound 0.316 µM, first compound 0.0316 µM
# [24] = second compound 0.316 µM, first compound 0.1 µM
# [25] = second compound 0.316 µM, first compound 0.316 µM
# [26] = second compound 0.316 µM, first compound 1 µM
# [27] = second compound 1 µM, first compound 0.0316 µM
# [28] = second compound 1 µM, first compound 0.1 µM
# [29] = second compound 1 µM, first compound 0.316 µM
# [30] = second compound 1 µM, first compound 1 µM
# 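Also: spheroids exposed to compounds for seven days before readout.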
structure (smiles),measurement,setting,value
C=CC(=O)Nc1cc(Nc2nccc(-c3cn(C)c4ccccc34)n2)c(OC)cc1N(C)CCN(C)C + C=CC(=O)N1CCN(c2nc(OCC3CCCN3C)nc3c(F)c(-c4nc(N)cc(C)c4C(F)(F)F)c(Cl)cc23)C(C)C1,pIC50,[1],6.18
same,pIC50,[2],6.22
same,pIC50,[3],6.07
same,pIC50,[4],6.09
same,pIC50,[5],6.04
same,pIC50,[6],6.10
same,"viability, T/C","second compound 0.00316 µM, first compound 0.00316 µM",99.4%
same,"viability, T/C","second compound 0.00316 µM, first compound 0.01 µM",90.1%
same,"viability, T/C",[7],98.1%
same,"viability, T/C",[8],81.3%
same,"viability, T/C",[9],61%
same,"viability, T/C",[10],43.9%
same,"viability, T/C","second compound 0.01 µM, first compound 0.00316 µM",87.6%
same,"viability, T/C","second compound 0.01 µM, first compound 0.01 µM",86.8%
same,"viability, T/C",[11],87.8%
same,"viability, T/C",[12],81.2%
same,"viability, T/C",[13],59.9%
same,"viability, T/C",[14],42.2%
same,"viability, T/C","second compound 0.0316 µM, first compound 0.00316 µM",96.7%
same,"viability, T/C","second compound 0.0316 µM, first compound 0.01 µM",81.5%
same,"viability, T/C",[15],90.7%
same,"viability, T/C",[16],79.1%
same,"viability, T/C",[17],64.6%
same,"viability, T/C",[18],47.5%
same,"viability, T/C","second compound 0.1 µM, first compound 0.00316 µM",96.4%
same,"viability, T/C","second compound 0.1 µM, first compound 0.01 µM",88.8%
same,"viability, T/C",[19],102%
same,"viability, T/C",[20],77.3%
same,"viability, T/C",[21],70%
same,"viability, T/C",[22],46%
same,"viability, T/C","second compound 0.316 µM, first compound 0.00316 µM",92.1%
same,"viability, T/C","second compound 0.316 µM, first compound 0.01 µM",98.3%
same,"viability, T/C",[23],83.8%
same,"viability, T/C",[24],77.9%
same,"viability, T/C",[25],64.8%
same,"viability, T/C",[26],48.4%
same,"viability, T/C","second compound 1 µM, first compound 0.00316 µM",93.2%
same,"viability, T/C","second compound 1 µM, first compound 0.01 µM",84.1%
same,"viability, T/C",[27],85.2%
same,"viability, T/C",[28],83.9%
same,"viability, T/C",[29],65.6%
same,"viability, T/C",[30],46.2%
CCc1c2c(nc3ccc(O)cc13)-c1cc3c(c(=O)n1C2)COC(=O)[C@]3(O)CC + CCn1c(-c2cccnc2C(C)OC)c2c3cc(ccc31)N1CCOC(CC(NC(=O)C(C(C)C)N(C)C(=O)C3(F)CCN(C(=O)C#CC(C)(C)N(C)C)CC3)C(=O)N3CCCC(N3)C(=O)OCC(C)(C)C2)C1,pIC50,"curve of first compound, second compound 0.000949 µM",8.62
same,pIC50,"curve of first compound, second compound 0.003 µM",8.70
same,pIC50,"curve of first compound, second compound 0.00949 µM",8.70
same,pIC50,"curve of first compound, second compound 0.03 µM",8.82
same,pIC50,"curve of first compound, second compound 0.0949 µM",> 9.02
same,pIC50,"curve of first compound, second compound 0.3 µM",> 9.02
same,"viability, T/C","second compound 0.000949 µM, first compound 0.000949 µM",65.9%
same,"viability, T/C","second compound 0.000949 µM, first compound 0.003 µM",46.6%
same,"viability, T/C","second compound 0.000949 µM, first compound 0.00949 µM",18.3%
same,"viability, T/C","second compound 0.000949 µM, first compound 0.03 µM",7.36%
same,"viability, T/C","second compound 0.000949 µM, first compound 0.0949 µM",3.93%
same,"viability, T/C","second compound 0.000949 µM, first compound 0.3 µM",1.53%
same,"viability, T/C","second compound 0.003 µM, first compound 0.000949 µM",71.5%
same,"viability, T/C","second compound 0.003 µM, first compound 0.003 µM",37.9%
same,"viability, T/C","second compound 0.003 µM, first compound 0.00949 µM",19.8%
same,"viability, T/C","second compound 0.003 µM, first compound 0.03 µM",6.9%
same,"viability, T/C","second compound 0.003 µM, first compound 0.0949 µM",3.65%
same,"viability, T/C","second compound 0.003 µM, first compound 0.3 µM",2.05%
same,"viability, T/C","second compound 0.00949 µM, first compound 0.000949 µM",75.7%
same,"viability, T/C","second compound 0.00949 µM, first compound 0.003 µM",35.7%
same,"viability, T/C","second compound 0.00949 µM, first compound 0.00949 µM",15.8%
same,"viability, T/C","second compound 0.00949 µM, first compound 0.03 µM",5.59%
same,"viability, T/C","second compound 0.00949 µM, first compound 0.0949 µM",2.54%
same,"viability, T/C","second compound 0.00949 µM, first compound 0.3 µM",1.72%
same,"viability, T/C","second compound 0.03 µM, first compound 0.000949 µM",61.3%
same,"viability, T/C","second compound 0.03 µM, first compound 0.003 µM",34.7%
same,"viability, T/C","second compound 0.03 µM, first compound 0.00949 µM",14.4%
same,"viability, T/C","second compound 0.03 µM, first compound 0.03 µM",8.65%
same,"viability, T/C","second compound 0.03 µM, first compound 0.0949 µM",3.55%
same,"viability, T/C","second compound 0.03 µM, first compound 0.3 µM",1.17%
same,"viability, T/C","second compound 0.0949 µM, first compound 0.000949 µM",49.1%
same,"viability, T/C","second compound 0.0949 µM, first compound 0.003 µM",34.9%
same,"viability, T/C","second compound 0.0949 µM, first compound 0.00949 µM",14.8%
same,"viability, T/C","second compound 0.0949 µM, first compound 0.03 µM",5.24%
same,"viability, T/C","second compound 0.0949 µM, first compound 0.0949 µM",3.02%
same,"viability, T/C","second compound 0.0949 µM, first compound 0.3 µM",1.67%
same,"viability, T/C","second compound 0.3 µM, first compound 0.000949 µM",45.4%
same,"viability, T/C","second compound 0.3 µM, first compound 0.003 µM",30.3%
same,"viability, T/C","second compound 0.3 µM, first compound 0.00949 µM",7.93%
same,"viability, T/C","second compound 0.3 µM, first compound 0.03 µM",4.05%
same,"viability, T/C","second compound 0.3 µM, first compound 0.0949 µM",2.71%
same,"viability, T/C","second compound 0.3 µM, first compound 0.3 µM",1.08%
CCC(CC)c1cc(NC2CCC(N)C2)n2nccc2n1 (stereo not drawn) + C=CC(=O)N1CCN(c2nc(OCC3CCCN3C)nc3c(F)c(-c4nc(N)cc(C)c4C(F)(F)F)c(Cl)cc23)C(C)C1,pIC50,[1],5.80
same,pIC50,[2],5.78
same,pIC50,[3],5.77
same,pIC50,[4],5.76
same,pIC50,[5],5.76
same,pIC50,[6],5.75
same,"viability, T/C",[7],98%
same,"viability, T/C",[8],100%
same,"viability, T/C",[9],109%
same,"viability, T/C",[10],80.4%
same,"viability, T/C","second compound 0.00316 µM, first compound 3.16 µM",2.73%
same,"viability, T/C","second compound 0.00316 µM, first compound 10 µM",4.78%
same,"viability, T/C",[11],106%
same,"viability, T/C",[12],100%
same,"viability, T/C",[13],110%
same,"viability, T/C",[14],86.5%
same,"viability, T/C","second compound 0.01 µM, first compound 3.16 µM",2.18%
same,"viability, T/C","second compound 0.01 µM, first compound 10 µM",3.83%
same,"viability, T/C",[15],107%
same,"viability, T/C",[16],88.6%
same,"viability, T/C",[17],124%
same,"viability, T/C",[18],89.4%
same,"viability, T/C","second compound 0.0316 µM, first compound 3.16 µM",2.68%
same,"viability, T/C","second compound 0.0316 µM, first compound 10 µM",4.52%
same,"viability, T/C",[19],101%
same,"viability, T/C",[20],97.9%
same,"viability, T/C",[21],112%
same,"viability, T/C",[22],91.3%
same,"viability, T/C","second compound 0.1 µM, first compound 3.16 µM",2.71%
same,"viability, T/C","second compound 0.1 µM, first compound 10 µM",5.16%
same,"viability, T/C",[23],101%
same,"viability, T/C",[24],102%
same,"viability, T/C",[25],101%
same,"viability, T/C",[26],90.3%
same,"viability, T/C","second compound 0.316 µM, first compound 3.16 µM",3.2%
same,"viability, T/C","second compound 0.316 µM, first compound 10 µM",6.46%
same,"viability, T/C",[27],94.4%
same,"viability, T/C",[28],95.8%
same,"viability, T/C",[29],96.8%
same,"viability, T/C",[30],94.6%
same,"viability, T/C","second compound 1 µM, first compound 3.16 µM",3.19%
same,"viability, T/C","second compound 1 µM, first compound 10 µM",6.78%
C#Cc1c(F)ccc2cc(O)cc(-c3ncc4c(N5CC6CCC(C5)N6)nc(OCC56CCCN5CC(F)C6)nc4c3F)c12 (stereo not drawn),"viability, T/C",compound 0.0316 µM,25.6% [middle of 8 runs]
same,"viability, T/C",compound 0.1 µM,11.4% [middle of 8 runs]
same,"viability, T/C",compound 0.316 µM,4.64% [middle of 8 runs]
same,"viability, T/C",compound 1 µM,3.15% [middle of 8 runs]
same,"viability, T/C",compound 3.16 µM,2.31% [middle of 8 runs]
same,"viability, T/C",compound 10 µM,1.33% [middle of 8 runs]
same,pIC50,"compound alone, run of 09/09/2024",> 7.50

# Reference: PubChem BioAssay AID2060903 (Molecular Pharmacology Branch, DTP, NCI, 2025)
